Key:
[1] = molecular target: Beta-1 adrenergic receptor (Homo sapiens, UniProt P08588); assay: DRUGMATRIX: Adrenergic beta1 radioligand binding (ligand: [125I] Cyanopindolol); format: cell membranes, CHO-K1, Membrane; details: cho-k1; Not Active = under 50% inhibition at 10 µM
[2] = molecular target: T1, 5-hydroxytryptamine receptor 2C (Homo sapiens, UniProt P28335); assay: DRUGMATRIX: Serotonin (5-Hydroxytryptamine) 5-HT2C radioligand binding (ligand: [3H] Mesulergine); format: cell membranes, CHO-K1, Membrane; details: cho-k1; Not Active = under 50% inhibition at 10 µM
T1 sequence (P28335 whole entry): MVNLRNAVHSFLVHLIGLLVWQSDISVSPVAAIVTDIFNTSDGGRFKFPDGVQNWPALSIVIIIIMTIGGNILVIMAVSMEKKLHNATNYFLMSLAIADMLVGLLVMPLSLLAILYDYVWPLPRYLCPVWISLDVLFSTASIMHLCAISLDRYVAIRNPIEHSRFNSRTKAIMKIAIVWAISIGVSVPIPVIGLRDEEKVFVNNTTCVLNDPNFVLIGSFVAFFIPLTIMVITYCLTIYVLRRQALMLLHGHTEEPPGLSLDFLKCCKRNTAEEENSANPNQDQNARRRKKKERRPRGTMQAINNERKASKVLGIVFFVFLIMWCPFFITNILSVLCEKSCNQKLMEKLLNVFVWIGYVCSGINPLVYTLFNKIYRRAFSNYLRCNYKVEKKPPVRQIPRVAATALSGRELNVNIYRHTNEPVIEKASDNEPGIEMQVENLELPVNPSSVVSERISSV

[3] = DRUGMATRIX: Serotonin (5-Hydroxytryptamine) 5-HT3 radioligand binding (ligand: [3H] GR-65630); format: cell membranes, Membrane; details: hek293, Not Active = under 50% inhibition at 10 µM
[4] = molecular target: C-C chemokine receptor type 5 (Homo sapiens, UniProt P51681); format: cell membranes, HEK293, Membrane; details: hek293; further: in other assays of this panel Not Active means under 50% inhibition at 10 µM
C-C chemokine receptor type 5, sequence (P51681 whole entry): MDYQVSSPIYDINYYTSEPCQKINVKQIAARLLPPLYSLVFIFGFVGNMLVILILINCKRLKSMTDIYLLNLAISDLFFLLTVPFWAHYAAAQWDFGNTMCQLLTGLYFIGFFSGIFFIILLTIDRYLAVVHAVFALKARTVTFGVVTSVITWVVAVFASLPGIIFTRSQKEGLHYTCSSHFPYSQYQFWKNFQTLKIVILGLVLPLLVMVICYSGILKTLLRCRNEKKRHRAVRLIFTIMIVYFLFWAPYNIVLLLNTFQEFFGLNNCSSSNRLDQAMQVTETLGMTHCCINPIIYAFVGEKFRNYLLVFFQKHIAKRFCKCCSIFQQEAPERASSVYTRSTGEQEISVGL

[5] = molecular target: T2, Cholecystokinin receptor type A (Homo sapiens, UniProt P32238); format: cell membranes, Membrane; details: 1321-n1; further: in other assays of this panel Not Active means under 50% inhibition at 10 µM
T2 sequence (P32238 whole entry): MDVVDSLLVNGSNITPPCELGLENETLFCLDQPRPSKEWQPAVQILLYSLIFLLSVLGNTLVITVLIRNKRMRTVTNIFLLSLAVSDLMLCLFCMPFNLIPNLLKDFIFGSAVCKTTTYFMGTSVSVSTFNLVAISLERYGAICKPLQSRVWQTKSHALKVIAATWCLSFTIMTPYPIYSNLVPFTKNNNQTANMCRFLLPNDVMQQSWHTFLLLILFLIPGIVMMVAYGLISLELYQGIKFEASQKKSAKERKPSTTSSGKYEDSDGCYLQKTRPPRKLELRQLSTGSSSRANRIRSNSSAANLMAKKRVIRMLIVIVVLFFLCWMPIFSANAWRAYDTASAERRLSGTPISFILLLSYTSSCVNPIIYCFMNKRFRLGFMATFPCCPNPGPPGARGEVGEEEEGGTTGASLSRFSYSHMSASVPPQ

Neutrophil elastase = molecular target: T3, Neutrophil elastase (Homo sapiens, UniProt P08246); format: tissue-based;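 further: inhibition of neutrophil elastase enzyme activity, measured with a p-nitroanilide-linked peptide substrate; in other assays of this panel Not Active means under 50% inhibition at 10 µM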
T3 sequence (P08246 whole entry): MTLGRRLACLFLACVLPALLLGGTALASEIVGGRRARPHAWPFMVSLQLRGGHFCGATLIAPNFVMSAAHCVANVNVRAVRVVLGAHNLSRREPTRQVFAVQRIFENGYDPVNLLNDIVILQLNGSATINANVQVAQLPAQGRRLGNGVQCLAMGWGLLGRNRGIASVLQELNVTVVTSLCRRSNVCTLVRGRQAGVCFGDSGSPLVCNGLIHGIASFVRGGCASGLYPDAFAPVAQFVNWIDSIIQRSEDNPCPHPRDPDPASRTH

Adenosine receptor A3 = molecular target: T4, Adenosine receptor A3 (Homo sapiens, UniProt P0DMS8); format: cell membranes, CHO-K1, Membrane;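 further: radioligand binding assay with AB-MECA serving as the labeled ligand; in other assays of this panel Not Active means under 50% inhibition at 10 µM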
T4 sequence (P0DMS8 whole entry): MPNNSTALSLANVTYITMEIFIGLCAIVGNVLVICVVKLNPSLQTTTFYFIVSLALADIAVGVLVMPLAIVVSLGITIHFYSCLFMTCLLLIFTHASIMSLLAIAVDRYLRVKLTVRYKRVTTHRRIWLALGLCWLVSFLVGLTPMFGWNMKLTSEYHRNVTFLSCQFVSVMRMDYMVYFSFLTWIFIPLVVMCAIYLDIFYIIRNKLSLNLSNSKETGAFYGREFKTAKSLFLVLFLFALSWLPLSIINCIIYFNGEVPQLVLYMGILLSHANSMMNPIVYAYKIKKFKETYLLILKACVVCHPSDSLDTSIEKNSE

Beta-1 adrenergic receptor, sequence (P08588 whole entry): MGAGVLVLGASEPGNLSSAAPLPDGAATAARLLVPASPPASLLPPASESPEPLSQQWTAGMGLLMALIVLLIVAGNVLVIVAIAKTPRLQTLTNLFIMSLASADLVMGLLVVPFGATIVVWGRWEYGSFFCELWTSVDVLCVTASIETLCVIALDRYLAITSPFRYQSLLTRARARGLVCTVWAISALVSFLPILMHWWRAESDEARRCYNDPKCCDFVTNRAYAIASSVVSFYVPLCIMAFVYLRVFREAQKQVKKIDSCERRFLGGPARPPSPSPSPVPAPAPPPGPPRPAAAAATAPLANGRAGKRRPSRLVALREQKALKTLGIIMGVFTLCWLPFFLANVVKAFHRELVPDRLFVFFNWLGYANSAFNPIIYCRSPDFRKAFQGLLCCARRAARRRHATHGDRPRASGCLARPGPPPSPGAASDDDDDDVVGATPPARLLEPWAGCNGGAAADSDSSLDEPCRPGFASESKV

Structure (SMILES) | IC50 [1] | IC50 [2] | IC50 ([3]; read-out: IC50) | Ki ([3]; read-out: Ki) | IC50 [4] | IC50 [5] | IC50 (Neutrophil elastase) | IC50 (Adenosine receptor A3; cho-k1) | IC50 [3] | Ki [3] | IC50 (Adenosine receptor A3; read-out: IC50) | Ki (Adenosine receptor A3; read-out: Ki)
CN1C(=O)COc2c(C(=O)NC3CN4CCC3CC4)cc(Cl)cc21 (stereo unspecified) [AZASETRON] | Not Active | Not Active | 13 nM | 2.89 nM | Not Active | Not Active | Not Active | Not Active |  |  |  | 
C[C@H]1C[C@H]2[C@@H]3CCC4=CC(=O)C=C[C@]4(C)[C@@]3(Cl)[C@@H](O)C[C@]2(C)[C@@]1(O)C(=O)CO [BECLOMETHASONE] | Not Active | Not Active |  |  | Not Active | Not Active | Not Active | Not Active | Not Active | Not Active |  | 
CCOC(=O)[C@H](CCc1ccccc1)N[C@H]1CCc2ccccc2N(CC(=O)O)C1=O [BENAZEPRIL] | Not Active | Not Active |  |  | Not Active | Not Active | Not Active | Not Active | Not Active | Not Active |  | 
Nc1c(CC(=O)O)cccc1C(=O)c1ccc(Br)cc1 [BROMFENAC] | Not Active | Not Active |  |  | Not Active | Not Active | Not Active | Not Active | Not Active | Not Active |  | 
CCCCN1CCCCC1C(=O)Nc1c(C)cccc1C.Cl (stereo unspecified) [BUPIVACAINE HYDROCHLORIDE] | Not Active | Not Active |  |  | Not Active | Not Active | Not Active | Not Active | Not Active | Not Active |  | 
O=C1CC2(CCCC2)CC(=O)N1CCCCN1CCN(c2ncccn2)CC1 [BUSPIRONE] | Not Active | Not Active |  |  | Not Active | Not Active | Not Active | Not Active | Not Active | Not Active |  | 
C[C@@]12C(=O)OC(=O)[C@]1(C)[C@H]1CC[C@@H]2O1 [CANTHARIDIN] | Not Active | Not Active |  |  | Not Active | Not Active | Not Active | Not Active | Not Active | Not Active |  | 
O=NN(CCCl)C(=O)NCCCl [CARMUSTINE] | Not Active | Not Active |  |  | Not Active | Not Active | Not Active | Not Active | Not Active | Not Active |  | 
CC1=C(C(=O)O)N2C(=O)[C@@H](NC(=O)[C@H](N)c3ccccc3)[C@H]2SC1 [CEPHALEXIN ANHYDROUS] | Not Active | Not Active |  |  | Not Active | Not Active | Not Active | Not Active | Not Active | Not Active |  | 
O=C(N[C@H](CO)[C@H](O)c1ccc([N+](=O)[O-])cc1)C(Cl)Cl [CHLORAMPHENICOL] | Not Active | Not Active |  |  | Not Active | Not Active | Not Active | Not Active | Not Active | Not Active |  | 
ClC(Cl)Cl [CHLOROFORM] | Not Active | Not Active |  |  | Not Active | Not Active | Not Active | Not Active | Not Active | Not Active |  | 
CN(C)c1ccc(C(=C2C=CC(=[N+](C)C)C=C2)c2ccc(N(C)C)cc2)cc1.[Cl-] [GENTIAN VIOLET] |  | Not Active |  |  | Not Active | Not Active | Not Active |  | Not Active | Not Active | 4170 nM | 2350 nM
